Source: patent EP0840781B1, “METHODS AND DEVICES FOR THE REMOVAL OF PSORALENS FROM BLOOD PRODUCTS” (Cerus Corporation, priority 1995, dated 1996)
Read-outs that look alike come from different tables or passages of the source.

Experiments:
[1] = test system: Salmonella typhimurium tester strains TA97a, TA98, TA100, TA102, TA1537 and TA1538
Source text: The second property that is important in testing a compound for use in methods described herein is mutagenicity. The most widely used mutagen/carcinogen screening assay is the Ames test. This assay is described by D.M. Maron and B.N. Ames in Mutation Research 113:173 ( 1983) and a specific screen is described in detail in Example 17, below. The Ames test utilizes several unique strains of Salmonella typhimurium that are histidine- dependent for growth and that lack the usual DNA repair enzymes. The frequency of normal mutations that render the bacteria independent of histidine (i.e., the frequency of spontaneous revertants) is low. The test allows one to evaluate the impact of a compound on this revenant frequency.
Because some substances are not mutagenic by themselves, but are converted to a mutagen by metabolic action, the compound to be tested is mixed with the bacteria on agar plates along with the liver extract. The liver extract serves to mimic metabolic action in an animal.
The mixtures are allowed to incubate. Growth of bacteria (if any) is checked by counting colonies.
In this example the compounds described herein are tested for their dark mutagenicity using an Ames assay. The procedures used for the Salmonella mutagenicity test as described in detail by Maron and Ames were followed exactly. Maron, D.M. and B.N. Ames, Mutation Research 113: 173 ( 1983). A brief description for each procedure is given here. The tester strains TA97a, TA98, TA 100, TA102, TA1537 and TA1538 were obtained from Dr. Ames. TA97a, TA98, TA1537 and TA1538 are frameshift tester strains. TA100 and TA102 are base-substitution tester strains. Upon receipt each strain was cultured under a variety of conditions to confirm the genotypes specific to the strains.
The first tests done with the strains were to determine the range of spontaneous reversion for each of the strains. With each mutagenicity experiment the spontaneous reversion of the tester strains to histidine independence was measured and expressed as the number of spontaneous revertants per plate. This served as the background controls.
For all experiments, the pre-incubation procedure was used. In this procedure one vial of each tester strain was thawed and 20 µL of this culture was added to 6 mL of Oxoid Nutrient Broth #2. This solution was allowed to shake for 10 hours at 37°C. In the pre-incubation procedure, 0.1 mL of this overnight culture was added to each of the required number of sterile test tubes. To half of the tubes 0.5 mL of a 10% S-9 solution containing Aroclor 1254 induced rat liver extract (Molecular Toxicology Inc., Annapolis, MD), and MgCl2, KCl, glucose-6-phosphate, NADP, and sodium phosphate buffer (Sigma, St. Louis, Missouri) were added. To the other half of the tubes 0.5 mL of 0.2M sodium phospate buffer, pH 7.4, was used in place of the S-9 mixture (the - S9 samples). Finally 0.1 mL of the test solution containing either 0, 0.1, 0.5, 1, 5, 10, 50, 100, 250, or 500 µg/mL of the test compound was added. The 0.7 mL mixture was vonexed and then pre-incubated while shaking for 20 minutes at 37°C. After shaking, 2 mL of molten top agar supplemented with histidine and biotin were added to the 0.7 mL mixture and immediately poured onto a minimal glucose agar plate (volume of base agar was 20 mL). The top agar was allowed 30 minutes to solidify and then the plates were inverted and incubated for 44 hours at 37°C. After incubation the number of revertant colonies on each plate were counted.
Maron and Ames (1983) describe the conflicting views with regard to the statistical treatment of data generated from the test.

[2] = test system: Male Balb/c mice; details: for PCE + MN (%) / PCE/RBC (%): male, Balb/c, mouse, in vivo, 5 day
Procedure: Male Balb/c mice were then injected with 0.1 ml of a compound solution via the tail vein. At least 3 mice were injected per dose level Saline only was used as a negative control. For a positive control, cyclophosphamide (cycloPP) was administered at a dose of 30 mg/kg. In the experimental group, the injections were repeated once per day for four days. In the positive control group, the sample was administered only once, on day three. On day 5, several microliters of blood were withdrawn from each subject and smeared on a glass slide. Cells were fixed in absolute methanol and stored in a slide rack.
For analysis, cells were stained with acridine orange and visualized under a fluorescence microscope by counting: (i) the number of reticulocytes per 5000 erythrocytes; and (ii) the number of micronucleated reticulocytes per 1000 reticulocytes. Reticulocytes were distinguished by their red fluorescence due to the presence of RNA. Micronuclei were distinguished by their green fluorescence due to the presence of DNA. The percentage of reticulocytes (%PCE) was then calculated. A decrease in the frequency of erythrocytes, represented by an increase in the percentage of reticulocytes, is an indication of bone marrow toxicity. The percentage of reticulocytes with micronuclei (%PCE with MN) was also calculated. An increase in %PCE with MN is a measure of elastogenicity.
After initial results were determined, the experiment was repeated using increased dose levels, until: (i) Micronucleus formation was seen; or (ii). Bone marrow toxicity was observed; or (iii) The lethal dose was reached; or (iv) A dose of 5 g/kg was administered.

[3] = test system: HIV-1; details: 1 Minute Irradiation, HIV Starting Titer Approximately 5 Logs (Table 10)
Procedure: Pathogen inactivation efficiency of several compounds described herein was evaluated by examining the ability of the compounds to inactivate cell-free virus (HIV). Inactivation of cell-free HIV was performed as follows.
As in the R17 assay, small aliquots of the compounds listed in TABLES 10 and 11, below, at the concentrations listed in the table, were added to stock HIV-1 to a total of 0.5 mL. The stock HIV (10^5 - 10^7 plaque forming units/mL) was in DMEM/15% FBS. […] Controls included HIV-I stock only, HIV-1 plus UVA only, and HIV-I plus the highest concentration of each psoralen tested, with no UVA. Post irradiation. all samples were store frozen at -70° C until assayed for infectivity by a microtiter plaque assay. Aliquots for measurement of residual HIV infectivity in the samples treated with a compound of the present invention were withdrawn and cultured.
Residual HIV infectivity was assayed using an MT-2 infectivity assay. […] The assay medium was 85% DMEM (with a high glucose concentration) containing 100 µg of streptomycin, 100 U of penicillin, 50 µg of gentamicin, and 1 µg of amphotericin B per mL, 15% FBS and 2 µg of Polybrene (Sigma Chemical Co., St. Louis, Mo.) per mL. Test and control samples from the inactivation procedure were diluted in 50% assay medium and 50% normal human pooled plasma. The samples were serially diluted directly in 96-well plates (Coming Glass Works, Coming, N.Y.). The plates were mixed on an oscillatory shaker for 30 seconds and incubated at 37°C in a 5% CO2 atmosphere for 1 to 18 hours. […] After an additional 1 hour of incubation at 37°C in 5% CO2, 0.075 mL of assay medium containing 1.6% SeaPlaque agarose (FMC Bioproducts, Rockland, Maine) and prewarmed to 38.5°C was added to each well. The plates were kept at 37°C for a few minutes until several plates had accumulated and then centrifuged in plate carriers at 600 x g for 20 minutes in a centrifuge precooled to 10°C. In the centrifuge, cell monolayers formed prior to gelling of the agarose layer. The plates were incubated for 5 days at 37°C in 5% CO2 and stained by the addition of 0.05 mL of 50 µg/mL propidium iodide (Sigma Chemical Co.) in phosphate-buffered saline (pH 7.4) to each well. After 24 to 48 hours, the red fluorescence-stained microplaques were visualized by placing the plates on an 8,000 µW/cm^2 304 nm UV light box (Fotodyne, Inc., New Berlin, Wis.). The plaques were counted at a magnification of x20 to x25 through a stereomicroscope.

## Cc1oc2c(C)c3oc(=O)cc(C)c3cc2c1COCCN [Compound 2, 4'-(4-amino-2-oxa)butyl-4,5',8-trimethylpsoralen]
[1]; 5 µg/plate
  revertant colonies, TA100 +S9: -18
  revertant colonies, TA100 -S9: 103
  revertant colonies, TA1538 +S9: 2
  revertant colonies, TA1538 -S9: -8
[1]; 10 µg/plate
  revertant colonies, TA98 +S9: 24
  revertant colonies, TA98 -S9: 28
  revertant colonies, TA100 +S9: 1
  revertant colonies, TA100 -S9: 46
  revertant colonies, TA1537 +S9: 5
  revertant colonies, TA1537 -S9: 36
  revertant colonies, TA1538 +S9: 4
  revertant colonies, TA1538 -S9: -13
[1]; 50 µg/plate
  revertant colonies, TA98 +S9: 35
  revertant colonies, TA98 -S9: 52
  revertant colonies, TA100 +S9: 115
  revertant colonies, TA100 -S9: 182
  revertant colonies, TA1537 +S9: 40
  revertant colonies, TA1537 -S9: 282
[1]; 100 µg/plate
  revertant colonies, TA98 +S9: 53
  revertant colonies, TA98 -S9: 39
  revertant colonies, TA100 +S9: 96
  revertant colonies, TA100 -S9: 121
  revertant colonies, TA1537 +S9: 88
  revertant colonies, TA1537 -S9: 258
[1]; 250 µg/plate
  revertant colonies, TA98 +S9: 69
  revertant colonies, TA98 -S9: 29
  revertant colonies, TA1537 +S9: 744
  revertant colonies, TA1537 -S9: 176
[1]; 500 µg/plate
  revertant colonies, TA98 +S9: 63
  revertant colonies, TA98 -S9: 6
  revertant colonies, TA1537 +S9: 395
  revertant colonies, TA1537 -S9: 114
[1]; two-fold or greater increase in revertants above background and dose dependent response
  frameshift mutagenicity (Ames, summary): weak frameshift mutagenicity in the presence of S9 in TA98 and TA1537
[2]; experiment repeated using increased dose levels
  bone marrow toxicity or micronucleus formation: the acutely lethal dose was reached before there were any signs of bone marrow toxicity or micronucleus formation
[2]; 25 mg/kg
  PCE + MN (%): 0.25 ± 0.11%
  PCE/RBC (%): 3.46 ± 0.32%
[2]; 40 mg/kg
  PCE + MN (%): 0.20 ± 0.14%
  PCE/RBC (%): 3.08 ± 0.82%
[3]; 16 µM
  HIV Log Kill: 1.4
[3]; 32 µM
  HIV Log Kill: 3.8
[3]; 64 µM
  HIV Log Kill: >4.5
